{"source": "patent US10440953B2", "about": "“Control of pests in maize by ginkgolides and bilobalide” (priority 2015, dated 2019)", "assay_type_in_all_cases": "in vivo", "key": {"Euschistus heros [1]": {"tested_on": "Euschistus heros", "experiment": "Spray of Agrisure Viptera and Roundoup Ready 2 maize seedlings with bilobalide, control of Euschistus heros (Example-4)", "conditions": "for Relative Efficacy 6DAI: Abbott's formula; for No of alive insects 6DAI: ten adult E. heros per plant", "description": "(§1) Relative efficacy (E) values were calculated according to Abbot's formula E=[(C−G)/C]×100, wherein C is the percentage of alive insects in untreated controls, and G is the percentage of alive insects in plants treated with components of the ginkgo tree.\n(§2) Agrisure™ Viptera and Roundoup Ready™ 2 Zea mays seedlings were sprayed with 1 ml of compositions comprising either no component of the ginkgo tree, or bilobalide at a concentration of 50, 100, or 150 ppm. Plants were allowed to dry and subsequently infested with ten adult insects of Euschistus heros. Three replicate measurement on different plants were made for each measurement. Six days after infestation (6DAI) number of live and dead insects was determined. The mean number of alive insects, as well as the relative efficacy values (E) according to Abbott's formula were gathered in Table G, wherein the number of alive insects in untreated controls (C) was the value of the same plant without the application of bilobalide."}, "Nezara viridula [2]": {"tested_on": "Nezara viridula", "experiment": "Soil drench on corn, mortality of Nezara viridula (Example-2)", "conditions": "soil drench 2.5 mg active ingredient per plant, infested 3DAT, measured 7DAT", "description": "Ginkgolide A and Bilobalide were each dissolved in a solution of 50 wt % of acetone in water and applied to the soil of corn four days after planting at a rate of 2.5 mg of the active ingredient per plant. Prior to infestation the soil was covered with parafilm to prevent insect exposure to treated soil. Each plant was infested 3DAT with four 4th instar Nezara viridula insects. Insects were contained on the plant using organza fabric bags. Four replicates on different plants were made for each measurement. The mortality of the insects was measured 7DAT. The mean mortality values were gathered in Table E."}, "Nezara viridula [3]": {"tested_on": "Nezara viridula", "experiment": "Foliar spray of maize plants, mortality of Nezara viridula (Example-1)", "conditions": "for mortality at 100 ppm: Nezara viridula, foliar, 72 h", "description": "Zea mays plants were grown to growth stage BBCH 12. The maize plants were then sprayed with 300 l/ha of aqueous compositions comprising either no component of the ginkgo tree, 300 ppm of ginkgolide A, or 100 ppm of bilobalide. The plants were then allowed to dry and subsequently infested with five insects (either adult, or 4th instar nymphs) of Nezara viridula. Insects were contained on the plant using mesh organza bags. Three replicates on different plants were made for each measurement. Three days after infestation, the number of live and dead insects was determined. The mean mortality values were gathered in Table D."}, "Nezara viridula [4]": {"tested_on": "Nezara viridula", "experiment": "Corn seed treatment, damage protection against Nezara viridula (Example-3)", "conditions": "4th instar N. viridula, assessed 10DAT", "description": "Ginkgolide A was dissolved in DMSO and applied to corn seeds at rates of 1.0 and 0.5 mg of Ginkgolide A per plant. One seed was planted per pot in a 1:1 mixture of North Carolina loamy sand:sand. Prior to infestation, soil was covered with parafilm to prevent insect exposure to treated soil. After emergence of the plants, each pot was infested with four 4th instar Nezara viridula insects. Insects were contained on the pots using organza fabric bags. Four replicates on different plants were made for each measurement. The mean damage protection of the corn plants was assessed 10DAT in comparison with untreated controls. For plant height, root mass, and root length, evaluation of the damage protection of the plants was carried out for each treatment as the increase from the infested solvent blank (SB) relative to the increase of the uninfested control from the infested solvent blank: (Treatment−Infested SB)/Uninfested SB−Infested SB)×100%. The results of the mean damage protection values were gathered in Table F."}, "Euschistus heros [5]": {"tested_on": "Euschistus heros", "experiment": "Spray of Agrisure Viptera and Roundoup Ready 2 maize seedlings with ginkgolide A, control of Euschistus heros (Example-5)", "conditions": "for Relative Efficacy 3DAI: Abbott's formula; for No of alive insects 3DAI: ten adult E. heros per plant", "description": "as §1, §2\nThree days after infestation (3DAI) number of live and dead insects was determined. The mean number of alive insects, as well as the relative efficacy values (E) according to Abbott's formula were gathered in Table H, wherein the number of alive insects in untreated controls (C) was the value of the same plant without the application of ginkgolide A."}, "[6]": {"conditions": "Agrisure Viptera maize, 50 ppm bilobalide"}, "[7]": {"conditions": "Agrisure Viptera maize, 100 ppm bilobalide"}, "[8]": {"conditions": "Agrisure Viptera maize, 150 ppm bilobalide"}, "[9]": {"conditions": "Roundoup Ready 2 maize, 50 ppm bilobalide"}, "[10]": {"conditions": "Roundoup Ready 2 maize, 100 ppm bilobalide"}, "[11]": {"conditions": "Roundoup Ready 2 maize, 150 ppm bilobalide"}, "[12]": {"conditions": "Agrisure Viptera maize, 10 ppm ginkgolide A"}, "[13]": {"conditions": "Agrisure Viptera maize, 250 ppm ginkgolide A"}, "[14]": {"conditions": "Roundoup Ready 2 maize, 10 ppm ginkgolide A"}, "[15]": {"conditions": "Roundoup Ready 2 maize, 250 ppm ginkgolide A"}}, "note": "Read-outs that look alike come from different tables or passages of the source."}
{"smiles": "CC(C)(C)[C@]1(O)C[C@@H]2OC(=O)C[C@@]23C(=O)O[C@@H]2OC(=O)[C@H](O)[C@]213", "note": "[Bilobalide, (3aS,5aR,8aS,9R,10aR)-9-tert-butyl-8,9-dihydroxydihydro-9H-furo[2,3-b]furo[3′,2′;2,3]cyclopenta[1,2-c]furan-2,4,7(3H,8H)-trione]", "values": [{"measurement": "Relative Efficacy 6DAI", "setting": "Euschistus heros [1]; [6]", "value": 92, "unit": "%"}, {"measurement": "No of alive insects 6DAI", "setting": "Euschistus heros [1]; [6]", "value": 0.7}, {"measurement": "Relative Efficacy 6DAI", "setting": "Euschistus heros [1]; [7]", "value": 96, "unit": "%"}, {"measurement": "No of alive insects 6DAI", "setting": "Euschistus heros [1]; [7]", "value": 0.3}, {"measurement": "Relative Efficacy 6DAI", "setting": "Euschistus heros [1]; [8]", "value": 100, "unit": "%"}, {"measurement": "No of alive insects 6DAI", "setting": "Euschistus heros [1]; [8]", "value": 0.0}, {"measurement": "Relative Efficacy 6DAI", "setting": "Euschistus heros [1]; [9]", "value": 83, "unit": "%"}, {"measurement": "No of alive insects 6DAI", "setting": "Euschistus heros [1]; [9]", "value": 1.0}, {"measurement": "Relative Efficacy 6DAI", "setting": "Euschistus heros [1]; [10]", "value": 89, "unit": "%"}, {"measurement": "No of alive insects 6DAI", "setting": "Euschistus heros [1]; [10]", "value": 0.7}, {"measurement": "Relative Efficacy 6DAI", "setting": "Euschistus heros [1]; [11]", "value": 94, "unit": "%"}, {"measurement": "No of alive insects 6DAI", "setting": "Euschistus heros [1]; [11]", "value": 0.3}, {"measurement": "Mortality of 4th instar nymphs relative to untreated control", "setting": "Nezara viridula [2]", "value": 85, "unit": "%"}, {"measurement": "mortality at 100 ppm", "setting": "Nezara viridula [3]; read-out: Mortality of 4th instar nymphs", "value": 84.6, "unit": "%"}, {"measurement": "mortality at 100 ppm", "setting": "Nezara viridula [3]; read-out: Mortality of Adults", "value": 33.3, "unit": "%"}]}
{"smiles": "C[C@@H]1C(=O)O[C@H]2C[C@@]34[C@H]5C[C@@H](C(C)(C)C)[C@]36[C@@H](OC(=O)[C@@H]6O)O[C@@]4(C(=O)O5)[C@]21O", "note": "[Ginkgolide A]", "values": [{"measurement": "Mean damage protection", "setting": "Nezara viridula [4]; seed treatment 0.5 mg/seed", "value": 64, "unit": "%"}, {"measurement": "Mean damage protection", "setting": "Nezara viridula [4]; seed treatment 1.0 mg/seed", "value": 77, "unit": "%"}, {"measurement": "Mortality of 4th instar nymphs relative to untreated control", "setting": "Nezara viridula [2]", "value": 100, "unit": "%"}, {"measurement": "Relative Efficacy 3DAI", "setting": "Euschistus heros [5]; [12]", "value": 38, "unit": "%"}, {"measurement": "No of alive insects 3DAI", "setting": "Euschistus heros [5]; [12]", "value": 5.3}, {"measurement": "Relative Efficacy 3DAI", "setting": "Euschistus heros [5]; [13]", "value": 35, "unit": "%"}, {"measurement": "No of alive insects 3DAI", "setting": "Euschistus heros [5]; [13]", "value": 5.7}, {"measurement": "Relative Efficacy 3DAI", "setting": "Euschistus heros [5]; [14]", "value": 14, "unit": "%"}, {"measurement": "No of alive insects 3DAI", "setting": "Euschistus heros [5]; [14]", "value": 8.3}, {"measurement": "Relative Efficacy 3DAI", "setting": "Euschistus heros [5]; [15]", "value": 21, "unit": "%"}, {"measurement": "No of alive insects 3DAI", "setting": "Euschistus heros [5]; [15]", "value": 7.7}, {"measurement": "Mortality of 4th instar nymphs", "setting": "Nezara viridula [3]; 300 ppm ginkgolide A, 300 l/ha spray on Zea mays BBCH 12, 4th instar N. viridula, three days after infestation", "value": 61.5, "unit": "%"}, {"measurement": "Mortality of Adults", "setting": "Nezara viridula [3]; 300 ppm ginkgolide A, 300 l/ha spray on Zea mays BBCH 12, adult N. viridula, three days after infestation", "value": 20.0, "unit": "%"}]}
